How the values were obtained:
Plasmodium falciparum [1] = assay: Antimalarial activity against chloroquine sensitive Plasmodium falciparum T96 infected in human erythrocytes by microplate fluorometric detection method; type: functional, organism-based
Plasmodium falciparum [2] = assay: Antimalarial activity against chloroquine resistant Plasmodium falciparum K1 infected in human erythrocytes by microplate fluorometric detection method; type: functional, organism-based
Plasmodium falciparum [3] = assay: Antimalarial activity against Plasmodium falciparum Dd2; type: functional, organism-based
HepG2 = assay: Cytotoxicity against human HepG2 cells; type: functional, cell-based
[4] = Cytotoxicity against human HEK293 cells; type: toxicity, cell-based
A549 = assay: Cytotoxicity against human A549 cells; type: functional
Plasmodium falciparum [5] = assay: Antimalarial activity against chloroquine sensitive Plasmodium falciparum 3D7 incubated for 72 hrs by malaria SYBR green I nucleic acid staining dye based fluorescence assay; type: functional, organism-based; conditions: 3D7, 72 h
Plasmodium falciparum [6] = assay: Antimalarial activity against multidrug resistant Plasmodium falciparum Dd2 incubated for 72 hrs by malaria SYBR green I nucleic acid staining dye based fluorescence assay; type: functional, organism-based; conditions: Dd2, 72 h
Plasmodium falciparum [7] = assay: Antimalarial activity against multidrug resistant Plasmodium falciparum K1 incubated for 72 hrs by malaria SYBR green I nucleic acid staining dye based fluorescence assay; type: functional, organism-based; conditions: K1, 72 h
Plasmodium falciparum [8] = assay: Antimalarial activity against chloroquine sensitive Plasmodium falciparum 3D7 incubated for 72 hrs by SYBR green I assay; type: functional, organism-based; conditions: 3D7, 72 h
Plasmodium falciparum [9] = assay: Antimalarial activity against chloroquine resistant Plasmodium falciparum Dd2 incubated for 72 hrs by malaria SYBR green I based assay; type: functional, organism-based; conditions: Dd2, 72 h

Q: For `COC(=O)CC[C@@H](C)[C@H]1CCC2C3CC[C@@H]4CC5(CC[C@]4(C)C3C[C@H](OC(C)=O)[C@@]21C)OOC(C)(C)OO5` (stereo partly specified), which EC50 (Plasmodium falciparum [1]) is on record?
A: 0.131 µM

Q: What about the EC50 (Plasmodium falciparum [2]) of the same compound?
A: 0.003 µM

Q: For `COc1ccc(NC(=O)N2CCCCN3C[C@H](c4ccc(C#Cc5ccccc5)cc4)[C@@H]3C2)cc1`, which EC50 (Plasmodium falciparum [3]) is on record?
A: 0.015 µM

Q: What about the CC50 (HepG2) of the same compound?
A: > 50 µM

Q: What about the CC50 [4] of the same compound?
A: > 50 µM

Q: What about the CC50 (A549) of the same compound?
A: 38 µM

Q: Which results are given for `C[C@@H]1CCC2[C@@H](C)[C@H](OC(=O)CCC(=O)NCCNc3ccnc4cc(Cl)ccc34)O[C@@H]3O[C@]4(C)CC[C@@H]1[C@@]23OO4` (stereo partly specified)?
A: EC50 (Plasmodium falciparum [5]): 0.0027 µM; EC50 (Plasmodium falciparum [6]): 0.001 µM; EC50 (Plasmodium falciparum [7]): 0.00078 µM

Q: Which IC50 (Plasmodium falciparum [8]) does the source give for `C=C(c1ccc(C)cc1C)C1COC2(CCC(Nc3ccccc3)CC2)OO1` (stereo unspecified) here?
A: 0.0196 µM

Q: Which IC50 (Plasmodium falciparum [9]) does the source give for `CN(C)CCNc1cc(/C=C/c2ccncc2)nc2ccccc12` here?
A: 0.033 µM

— ChEMBL document CHEMBL5104092, “An insight into the recent development of the clinical candidates for the treatment of malaria and their target proteins” (Eur J Med Chem, 2021)
